Legend:
[1] = Rat telemetry protocol (core body temperature); type: in vivo; details: core body temperature of rats at one hour post dosing (100 μmol/kg, p.o.), relative to vehicle
Method: Male, Sprague Dawley rats, 225-250 grams were anesthetized with Sevoflurane (Abbott Laboratories). Rats were placed on a heating pad and covered with a sterile surgical drape. A ventral midline abdominal incision was made and sterile cotton tip applicators were used to gently move internal tissue and expose the abdominal aorta for implantation of the telemetry catheter (Data Sciences International; TL11M2-050-PXT). Blood flow was temporarily stopped to the lower extremities (5-7 min) with Diffenbach clamps to allow the insertion of the telemetry catheter into the abdominal aorta. Once inserted, a sterile cellulose patch was placed over the catheter/aorta and secured using a small amount of tissue adhesive (Vetbond, 3M). Once catheter placement was complete, the clamps were removed and blood flow was restored to the lower extremities. The transmitter was placed in the intraperitoneal cavity. The transmitter suture rib was sewn into the abdominal sutures to secure it in place. The skin was closed using sterile wound clips and the animal removed from Sevoflurane. Buprenex ([…] s.c.; Phoenix) was administered for post-operative analgesia. Animals were maintained on a heating pad until ambulatory, and then individually housed with food and water ad lib. Surgical staples were removed after 7-10 days post-implantation. Rats were allowed a 2-week post-surgical recovery period before treatment with test compound. Oral dosing (p.o.) was at time zero, with rats receiving a single dose of vehicle (10% EtOH, 20% Tween-80, 70% PEG-400) or a 100 μmol/kg dose of compound dissolved in vehicle. Temperature measurements were recorded every 15 minutes for the duration of the study (24 hours).
The term “core body temperature” as used herein, means the temperature measured in the intraperitoneal cavity.

human TRPV1 = biological target: T1, human TRPV1 (Homo sapiens, UniProt Q8NER1); experiment: Acid activation assay - ratiometric calcium imaging of capsaicin- or acid-induced responses; type: cell-based; details: Example 30 at 3 μM, HEK293-F cells expressing human TRPV1, FIG. 1; for block of TRPV1-mediated increase in intracellular calcium concentration in response to capsaicin: capsaicin 1 μM; for block of TRPV1-mediated increase in intracellular calcium concentration in response to acid: pH 5.5
T1 construct: expressed in transfected cells; host or cells: HEK293-F cells, transient transfection
T1 sequence (Q8NER1 whole entry): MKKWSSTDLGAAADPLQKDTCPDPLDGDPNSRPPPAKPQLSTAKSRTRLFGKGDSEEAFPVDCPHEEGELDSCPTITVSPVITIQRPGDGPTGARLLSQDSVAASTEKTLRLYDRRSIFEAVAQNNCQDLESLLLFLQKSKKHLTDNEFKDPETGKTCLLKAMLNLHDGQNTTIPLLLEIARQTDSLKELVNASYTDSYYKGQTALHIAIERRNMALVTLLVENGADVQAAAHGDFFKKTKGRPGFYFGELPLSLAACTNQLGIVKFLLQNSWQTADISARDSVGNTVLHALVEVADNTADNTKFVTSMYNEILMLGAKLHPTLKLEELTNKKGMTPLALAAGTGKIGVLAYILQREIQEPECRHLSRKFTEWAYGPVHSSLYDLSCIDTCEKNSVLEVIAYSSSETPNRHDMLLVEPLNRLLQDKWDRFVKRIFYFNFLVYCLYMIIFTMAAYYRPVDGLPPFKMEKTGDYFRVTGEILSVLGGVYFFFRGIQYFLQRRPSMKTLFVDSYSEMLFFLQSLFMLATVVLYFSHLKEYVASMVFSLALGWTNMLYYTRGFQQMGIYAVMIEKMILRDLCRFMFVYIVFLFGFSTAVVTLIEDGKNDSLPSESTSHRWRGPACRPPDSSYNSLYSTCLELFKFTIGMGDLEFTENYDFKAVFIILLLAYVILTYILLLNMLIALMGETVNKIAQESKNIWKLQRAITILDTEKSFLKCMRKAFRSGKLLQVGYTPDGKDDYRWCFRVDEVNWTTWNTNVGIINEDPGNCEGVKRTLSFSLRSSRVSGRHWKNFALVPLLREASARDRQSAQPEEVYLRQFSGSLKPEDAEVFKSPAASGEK
Method: The differential effects of TRPV1 antagonists on capsaicin- or acid-induced responses were verified by ratiometric calcium imaging. Transiently transfected HEK293-F cells expressing human TRPV1 were incubated with 5 μM Fura-2AM for 30 minutes at 37° C. Intracellular calcium concentration was measured on an imaging system consisting of the X-Cite™ 120 Fluorescence Illumination System (EXFO) and a Digital Camera (C4742-95, Hamamatsu Photonics) connected to an Olympus 1×71 microscope. Through the control of Slide Book 4.2 software, fluorescence was measured during excitation at 340 and 380 nm; the ratio of the fluorescence at both excitation wavelengths (F340/F380) was monitored. D-PBS, pH 7.4 (Invitrogen, catalog no. 14287) was used as the extracellular solution. Acidic buffer was prepared by titrating D-PBS, pH 7.4 with 7 N HCl to pH 5.5. Agonists and antagonists were prepared in the pH 7.4 or 5.5 solutions. Rapid solution switch was achieved by using a ValveLink system. […] Over the 2100-second time course, the cells were continuously perfused with D-PBS, pH7.4 or challenged sequentially with solutions containing Example 30 (3 μM), Example 30 (3 μM) plus capsaicin (1 μM), Example 30 (3 μM) plus acid (pH 5.5), acid (pH 5.5) alone, or capsaicin (1 μM) alone. The black bars above the traces designate addition and duration of solution applications. Spaces between horizontal bars represent periods in which cells were perfused with D-PBS, pH 7.4.

[2] = biological target: T2, human TRPV1 receptor (hTRPV1) (Homo sapiens, UniProt Q8NER1); experiment: Capsaicin activation assay (Ca2+ influx, FLIPR); type: cell-based; details: 0.05 μM capsaicin, 1321N1 cells expressing hTRPV1
T2 construct: expressed in transfected cells
T2 sequence (Q8NER1 whole entry): as above
Method: Dulbecco's modified Eagle medium (D-MEM) (with 4.5 mg/mL glucose) and fetal bovine serum were obtained from Hyclone Laboratories, Inc. (Logan, Utah). Dulbecco's phosphate-buffered saline (D-PBS) (with 1 mg/mL glucose and 3.6 mg/l Na pyruvate, without phenol red), L-glutamine, hygromycin B, and Lipofectamine® were obtained from Life Technologies (Grand Island, N.Y.). G418 sulfate was obtained from Calbiochem-Novabiochem Corp. (San Diego, Calif.). Capsaicin (8-methyl-N-vanillyl-6-nonenamide) was obtained from Sigma-Aldrich, Co. (St. Louis, Mo.). Fluo-4 AM (N-[4-[6-[(acetyloxy)methoxy]-2,7-difluoro-3-oxo-3H-xanthen-9-yl]-2-[2-[2-[bis[2-[(acetyloxy)methoxy]-2-oxyethyl]amino]-5-methyl-phenoxy]ethoxy]phenyl]-N-[2-[(acetyloxy)methoxy]-2-oxyethyl]-glycine, (acetyloxy)methyl ester) was purchased from Molecular Probes (Eugene, Oreg.).
The cDNAs for the human TRPV1 receptor (hTRPV1) were isolated by reverse transcriptase-polymerase chain reaction (RT-PCR) from human small intestine poly A+RNA supplied by Clontech (Palo Alto, Calif.) using primers designed surrounding the initiation and termination codons identical to the published sequences (Hayes et al. Pain 2000, 88, 205-215). The resulting cDNA PCR products were subcloned into pCIneo mammalian expression vector (Promega) and fully sequenced using fluorescent dye-terminator reagents (Prism, Perkin-Elmer Applied Biosystems Division) and a Perkin-Elmer Applied Biosystems Model 373 DNA sequencer or Model 310 genetic analyzer. Expression plasmids encoding the hTRPV1 cDNA were transfected individually into 1321N1 human astrocytoma cells using Lipofectamine®. Forty-eight hours after transfection, the neomycin-resistant cells were selected with growth medium containing 800 μg/mL Geneticin (Gibco BRL). Surviving individual colonies were isolated and screened for TRPV1 receptor activity. Cells expressing recombinant homomeric TRPV1 receptors were maintained at 37° C. in D-MEM containing 4 mM L-glutamine, 300 μg/mL G418 (Cal-biochem) and 10% fetal bovine serum under a humidified 5% CO2 atmosphere.
The functional activity of compounds at the TRPV1 receptor was determined with a Ca^2+ influx assay and measurement of intracellular Ca^2+ levels ([Ca^2+]i). All compounds were tested over an 11-point half-log concentration range. Compound solutions were prepared in D-PBS (4× final concentration), and diluted serially across 96-well v-bottom tissue culture plates using a Biomek 2000 robotic automation workstation (Beckman-Coulter, Inc., Fullerton, Calif.). A 0.2 μM solution of the TRPV1 agonist capsaicin was also prepared in D-PBS. The fluorescent Ca^2+ chelating dye Fluo-4 AM was used as an indicator of the relative levels of [Ca^2+]i in a 96-well format using a Fluorescence Imaging Plate Reader (FLIPR) (Molecular Devices, Sunnyvale, Calif.). Cells were grown to confluency in 96-well black-walled tissue culture plates. Then, prior to the assay, the cells were loaded with 100 μL per well of Fluo-4 AM (2 μM, in D-PBS) for 1-2 hours at 23° C. Washing of the cells was performed to remove extracellular Fluo-4 AM (2×1 mL D-PBS per well), and afterward, the cells were placed in the reading chamber of the FLIPR instrument. 50 μL of the compound solutions were added to the cells at the 10 second time mark of the experimental run. Then, after a 3-minute time delay, 50 μL of the capsaicin solution was added at the, 190 second time mark (0.05 μM final concentration)(final volume=200 μL) to challenge the TRPV1 receptor. Time length of the experimental run was 240 seconds. Fluorescence readings were made at 1 to 5 second intervals over the course of the experimental run. The peak increase in relative fluorescence units (minus baseline) was calculated from the 190 second time mark to the end of the experimental run, and expressed as a percentage of the 0.05 μM capsaicin (control) response. […]

CC1(C)C[C@@H](NC(=O)Nc2cccc3c2C[C@H](O)CC3)c2ccc(F)cc2O1 [Example 30, N-[(4R)-7-fluoro-2,2-dimethyl-3,4-dihydro-2H-chromen-4-yl]-N′-[(7R)-7-hydroxy-5,6,7,8-tetrahydronaphthalen-1-yl]urea]
Δ Temp [1]: 1.1 °C
block of TRPV1-mediated increase in intracellular calcium concentration in response to capsaicin (human TRPV1): completely blocked
block of TRPV1-mediated increase in intracellular calcium concentration in response to acid (human TRPV1): completely blocked
IC50 [2]: 17 nM

CC1(C)C[C@@H](NC(=O)Nc2cccc3c2C[C@@H](O)CC3)c2ccc(F)cc2O1 [Example 31, N-[(4R)-7-fluoro-2,2-dimethyl-3,4-dihydro-2H-chromen-4-yl]-N′-[(7S)-7-hydroxy-5,6,7,8-tetrahydronaphthalen-1-yl]urea]
Δ Temp [1]: 1.0 °C
block of TRPV1-mediated increase in intracellular calcium concentration in response to capsaicin (human TRPV1): completely blocked
block of TRPV1-mediated increase in intracellular calcium concentration in response to acid (human TRPV1): completely blocked
IC50 [2]: 20 nM

O=C(Nc1cccc2c1C[C@H](O)CC2)N[C@@H]1CC(CF)(CF)Oc2cc(Cl)ccc21 [Example 105, N-[(4R)-7-chloro-2,2-bis(fluoromethyl)-3,4-dihydro-2H-chromen-4-yl]-N′-[(7R)-7-hydroxy-5,6,7,8-tetrahydronaphthalen-1-yl]urea]
Δ Temp [1]: 1.1 °C
IC50 [2]: 35 nM

O=C(Nc1cccc2c1C[C@@H](O)CC2)N[C@@H]1CC(CF)(CF)Oc2c(F)cccc21 [Example 107, N-[(4R)-8-fluoro-2,2-bis(fluoromethyl)-3,4-dihydro-2H-chromen-4-yl]-N′-[(7S)-7-hydroxy-5,6,7,8-tetrahydronaphthalen-1-yl]urea]
Δ Temp [1]: 0.9 °C
IC50 [2]: 53 nM

CC1(C)C[C@@H](NC(=O)Nc2cccc3c2C[C@H](O)CC3)c2ccc(F)c(Cl)c2O1 [Example 108, N-[(4R)-8-chloro-7-fluoro-2,2-dimethyl-3,4-dihydro-2H-chromen-4-yl]-N′-[(7R)-7-hydroxy-5,6,7,8-tetrahydronaphthalen-1-yl]urea]
Δ Temp [1]: 1.2 °C
IC50 [2]: 21 nM

CC1(C)C[C@@H](NC(=O)Nc2cccc3c2C[C@@H](O)CC3)c2ccc(F)c(Cl)c2O1 [Example 109, N-[(4R)-8-chloro-7-fluoro-2,2-dimethyl-3,4-dihydro-2H-chromen-4-yl]-N′-[(7S)-7-hydroxy-5,6,7,8-tetrahydronaphthalen-1-yl]urea]
Δ Temp [1]: 1.2 °C
IC50 [2]: 21 nM

O=C(Nc1cccc2c1C[C@@H](O)CC2)N[C@@H]1CC(CF)(CF)Oc2cc(C(F)(F)F)ccc21 [Example 112, N-[(4R)-2,2-bis(fluoromethyl)-7-(trifluoromethyl)-3,4-dihydro-2H-chromen-4-yl]-N′-[(7S)-7-hydroxy-5,6,7,8-tetrahydronaphthalen-1-yl]urea]
Δ Temp [1]: 1.4 °C
IC50 [2]: 34 nM

CC1(C)C[C@@H](NC(=O)Nc2cccc3c2C[C@@H](O)CC3)c2ccc(F)c(F)c2O1 [Example 114, N-[(4R)-7,8-difluoro-2,2-dimethyl-3,4-dihydro-2H-chromen-4-yl]-N′-[(7S)-7-hydroxy-5,6,7,8-tetrahydronaphthalen-1-yl]urea]
Δ Temp [1]: 0.6 °C
IC50 [2]: 15 nM

CC1(C)C[C@@H](NC(=O)Nc2cccc3c2C[C@H](O)CC3)c2ccc(OC(F)(F)F)cc2O1 [Example 115, N-[(4R)-2,2-dimethyl-7-(trifluoromethoxy)-3,4-dihydro-2H-chromen-4-yl]-N′-[(7R)-7-hydroxy-5,6,7,8-tetrahydronaphthalen-1-yl]urea]
Δ Temp [1]: 1.2 °C
IC50 [2]: 23 nM

CC1(C)C[C@@H](NC(=O)Nc2cccc3c2C[C@@H](O)CC3)c2ccc(OC(F)(F)F)cc2O1 [Example 116, N-[(4R)-2,2-dimethyl-7-(trifluoromethoxy)-3,4-dihydro-2H-chromen-4-yl]-N′-[(7S)-7-hydroxy-5,6,7,8-tetrahydronaphthalen-1-yl]urea]
Δ Temp [1]: 1.1 °C
IC50 [2]: 13 nM

Cc1cc2c(NC(=O)NC3CC(C)(C)Oc4c3ccc(N3CCCCC3)c4F)cccc2cn1 (centres unmarked) [Example 117, N-(8-fluoro-2,2-dimethyl-7-piperidin-1-yl-3,4-dihydro-2H-chromen-4-yl)-N′-(3-methylisoquinolin-5-yl)urea]
Δ Temp [1]: 1.0 °C
IC50 [2]: 82 nM

Cc1cc2c(NC(=O)N[C@@H]3CC(C)(C)Oc4cc(C(F)(F)F)ccc43)c(F)ccc2cn1 [Example 125, N-[(4R)-2,2-dimethyl-7-(trifluoromethyl)-3,4-dihydro-2H-chromen-4-yl]-N′-(6-fluoro-3-methylisoquinolin-5-yl)urea]
Δ Temp [1]: 0.5 °C
IC50 [2]: 35 nM

Cc1cc2c(NC(=O)N[C@@H]3C[C@@](C)(CF)Oc4cc(C(F)(F)F)ccc43)cccc2cn1 [Example 129, N-[(2S,4R)-2-(fluoromethyl)-2-methyl-7-(trifluoromethyl)-3,4-dihydro-2H-chromen-4-yl]-N′-(3-methylisoquinolin-5-yl)urea]
Δ Temp [1]: 0.7 °C
IC50 [2]: 15 nM

N-[(4R)-8-tert-butyl-3,4-dihydro-2H-chromen-4-yl]-N-(3-methylisoquinolin-5-yl)urea, hydrochloride salt [Example 100]
Δ Temp [1]: 1.7 °C
IC50 [2]: 7 nM

From patent publication US8609692B2, “TRPV1 antagonists” (AbbVie Inc., priority 2008, dated 2013)
